Measurements from article PMC9061853, “Luminescent bis(benzo[d]thiazolyl)quinoxaline: facile synthesis, nucleic acid and protein BSA interaction, live-cell imaging, biopharmaceutical research and cancer theranostic application” (RSC Advances, 2019).

What was measured:
[1] = test system: HEK-293; test: MTT cytotoxicity assay, HEK-293 normal cells; type: cell-based, human; details: 24 h incubation
Method: (§1) Cytotoxicity studies were performed for all the synthesized quinoxaline compounds (7a–7g) using standard 3-(4,5-dimethylthiazol-2-yl)-2,5-diphenyltetrazolium bromide (MTT) assay beside a panel of cancer cell lines such as human epithelioid cervix carcinoma (HeLa), human colorectal adenocarcinoma cell line (Caco-2) and one normal human embryonic kidney cells (HEK-293) in triplicates (Table 3). […] It is noteworthy to mention that Compound 7a and 7g presented best cytoselectivity in HeLa and Caco-2 cell lines respectively. […]
(§2) In vitro cytotoxic activities (MTT assay):
(§3) The basic detection of cytotoxicity of anticancer compounds in vitro is MTT assay. The MTT proliferation assay is based on the reduction of the yellow MTT tetrazolium salt (3-[4,5-dimethylthiazol-2-yl]-2,5diphenyltetrazolium bromide) by mitochondrial dehydrogenases to form a purple MTT formazan crystals in viable cells. Synthesized compounds (7a-g) were prior dissolved in 0.1% DMSO and then serial dilution with medium and used in the experiment. Three different types of cancer cell lines were used in this experiment i.e., human Epitheloid Cervix Carcinoma (HeLa), human colon cancer cell line (Caco-2) and one normal kidney cell (HEK-293) were used in the assay. The cells were harvested at the log phase and it is cell counted using haemocytometer. Approximately 1 × 10^3 cells per well were seeded using all the cell lines. They were cultured in 100 μL of a DMEM media in 96-well plates and incubated at 37 °C for 24 hours under a 5% CO2 atmosphere. The cells were then washed with 1X PBS buffer and fresh media was added to the cells. The cells were then treated with different concentrations of the drugs (0.65-150 µM) in the volume of […] /well. Cisplatin has been used as a standard positive control drug. The control wells contains the same cell count of 1 × 10^3 cells per well of 100 μL medium containing 0.1% DMSO. After 24 h (for HeLa cell and HEK-293) and 72 h (for Caco-2), the medium was discarded and it is washed with 1X PBS and it was incubated with 100 µl of MTT reagent (1 mg/ml) for 4 h at 37°C.
(§4) Then the 96 well plate was placed on the shaker for 10 min and subsequently the absorbance was recorded by the ELISA reader at λ = 490 nm. The experiments were performed in […]
(§5) triplicate. […]

[2] = test system: HeLa; test: MTT cytotoxicity assay, HeLa; type: cell-based, human; details: for IC50: 24 h incubation; for SF (selectivity factor) HeLa: ratio of IC50 for HEK-293 to IC50 for HeLa
Method: as §1, §2, §3, §4, §5

[3] = test system: Caco-2; test: MTT cytotoxicity assay, Caco-2; type: cell-based, human; details: Homo sapiens, Caco-2; 72 h incubation
Description: as §2
as §3, with “/well.” for “/well. Cisplatin has been used as a standard positive control drug. The control wells contains the same cell count of 1 × 10^3 cells per well of 100 μL medium containing 0.1% DMSO. After 24 h (for HeLa cell and HEK-293) and 72 h (for Caco-2), the medium was discarded and it is washed with 1X PBS and it was incubated with 100 µl of MTT reagent (1 mg/ml) for 4 h at 37°C.”
(§6) The control wells contains the same cell count of 1 × 10^3 cells per well of 100 μL medium containing 0.1% DMSO. After 24 h (for HeLa cell and HEK-293) and 72 h (for Caco-2), the medium was discarded and it is washed with 1X PBS and it was incubated with 100 µl of MTT reagent (1 mg/ml) for 4 h at 37°C.
as §4, §5

[4] = MTT cytotoxicity assay, Caco-2; type: cell-based, human; details: human, Caco-2, ratio of IC50 for HEK-293 to IC50 for Caco-2; read-out: SF (selectivity factor) Caco-2
Description: as §2
as §3, with “/well.” for “/well. Cisplatin has been used as a standard positive control drug. The control wells contains the same cell count of 1 × 10^3 cells per well of 100 μL medium containing 0.1% DMSO. After 24 h (for HeLa cell and HEK-293) and 72 h (for Caco-2), the medium was discarded and it is washed with 1X PBS and it was incubated with 100 µl of MTT reagent (1 mg/ml) for 4 h at 37°C.”
as §6, §4, §5

[5] = Fluorescence quantum yield in water; type: physicochemical; details: 298 K, quinine sulphate as standard
Method: To know the absorption and emission behaviour of these synthesized compounds (7a–g), a standard concentration (3 × 10^−6 mol l^−1) in water has been used. In UV-vis spectra, λmax of all these compounds are observed at 320–330 nm due to π–π* transition (Fig. S1a ^†). The corresponding emission peaks are observed at 400–500 nm (Fig. S1b ^†). The emission of quantum yield (Φ) was calculated for all of the compounds (7a–g) using eqn (1) (Table S1 ^†). […]
2.6.2. Fluorescence study:
To know the emission property of all the synthesized complexes (7a-g), an initial investigation was performed using spectrofluorometric method in water by using absorption maximum as their excitation energy. Fluorescence quantum yield (Ф) of all the prepared compounds performed in water solution were calculated by employing the comparative William's method which involves the use of well-characterized standard with the known quantum yield value. Quinine sulphate was used as reference fluorophore excited at 350 nm and emission at 452 nm, quantum yield (ФR) = 0.50 in 1N H2SO4. The gradients of the plots are proportional to the quantum yield (Ф) of the studied system. The data obtained and quantum yield value calculated according to the equation (2): […]
Where, φ = Quantum yield, I = Peak Area, OD = absorbance at λmax, η = Refractive index of solvent and reference. Here, we have used Quinine Sulphate as a standard for calculating emission of quantum yield. […]

SMILES | IC50 [1] [µM] | IC50 [2] [µM] | IC50 ([1]; Homo sapiens, HEK293) [µM] | melting point [°C] | IC50 [3] [µM] | selectivity ratio [4] | Φ, emission quantum yield [5] | IC50 ([2]; Homo sapiens, HeLa) [µM] | SF (selectivity factor) HeLa [2]
N.N.[Cl][Pt][Cl] [Cisplatin, reference compound] | 50 ± 1.2 | 14.5 ± 0.8 | – | – | – | – | – | – | –
c1ccc(-c2nc3ccccc3s2)c(OCc2nc3ccccc3nc2COc2ccccc2-c2nc3ccccc3s2)c1 [Compound 7a] | – | – | 120 ± 0.9 | 130 to 135 | 69.8 ± 0.8 | 1.71 | 0.006 | 73.1 ± 1.7 | 1.6
Brc1ccc2nc(COc3ccccc3-c3nc4ccccc4s3)c(COc3ccccc3-c3nc4ccccc4s3)nc2c1 [Compound 7b] | – | – | 140 ± 1.4 | 145 | 109 ± 0.8 | 1.28 | 0.017 | > 100 | < 1.4
Clc1ccc2nc(COc3ccccc3-c3nc4ccccc4s3)c(COc3ccccc3-c3nc4ccccc4s3)nc2c1 [Compound 7c] | – | – | 160 ± 2.1 | 150 | 75 ± 3.5 | 2.13 | 0.017 | 68.61 ± 0.2 | 2.3
Fc1ccc2nc(COc3ccccc3-c3nc4ccccc4s3)c(COc3ccccc3-c3nc4ccccc4s3)nc2c1 [Compound 7d] | – | – | > 200 | 135 to 139 | 92 ± 4.9 | > 2.17 | 0.04 | 117 ± 5.4 | >1.7
Fc1cc2nc(COc3ccccc3-c3nc4ccccc4s3)c(COc3ccccc3-c3nc4ccccc4s3)nc2cc1Cl [Compound 7f] | – | – | > 200 | – | > 100 | > 2 | 0.014 | 44.3 ± 0.3 | >4.5
